Test results reported in patent US20140296153A1, “Oligodendrocyte Differentiation” (priority 2011, published 2014).

Columns and labels:
OPC = settings: cited from earlier work
CB1R = CB1R (Homo sapiens, UniProt P21554); settings: cited from earlier work
SVZ cells [1] = test: Single cell calcium imaging (SCCI) of oligodendrocytic differentiation; type: cell-based, mouse; settings: AM251 1 μM co-treated with Hp 1 μM, 7 days, 8 coverslips
Protocol: To investigate the influence of Hp on oligodendrocytic differentiation, SVZ neurospheres were allowed to develop for 7 days Hp (100 nm, 1 μM), in serum free medium devoid of growth factor at 37° C.
To determine the functional differentiation pattern of SVZ cells, we analyzed the variations of intracellular calcium-free levels ([Ca^2+]i) in single cells following stimulation with 50 mM KCl, 100 μM histamine (Sigma-Aldrich, St. Louis, Mo. USA) and 0.1 U/ml thrombin (Sigma-Aldrich) stimulation. KCl depolarization causes an increase in [Ca^2+]i in neurons, whereas stimulation with histamine leads to an increase in [Ca^2+]i in stem/progenitor cells, while thrombin leads to an increase in [Ca^2+]i in oligodendrocytes. SVZ cultures were loaded for 40 minutes with 5 μM Fura—2/AM (Molecular Probes, Carlsbad, Calif., USA), 0.1% fatty acid-free BSA, and 0.02% pluronic acid F-127 (Molecular Probes) in Krebs solution (132 mM NaCl, 4 mM KCl, 1.4 mM MgCl2, 1 mM CaCl2, 6 mM glucose, 10 mM HEPES, pH 7.4), in an incubator with 5% CO2 and 95% atmospheric air at 37° C. After a 10-minute postloading period at room temperature (RT) in the same medium without Fura-2/AM and pluronic acid, to obtain a complete hydrolysis of the probe, the glass coverslip was mounted on an RC-20 chamber in a PH3 platform (Warner Instruments, Hamden, Conn., USA) on the stage of an inverted fluorescence microscope (Axiovert 200, Carl Zeiss). […] The variations of [Ca^2+]i were evaluated by quantifying the ratio of the fluorescence emitted at 510 nm following alternate excitation (750 msec) at 340 and 380 nm, using a Lambda DG4 apparatus (Sutter Instrument, Novato, Calif., USA) and a 510 nm band-pass filter (Carl Zeiss) before fluorescence acquisition with a x40 objective and a CoolSNAP digital camera (Roper Scientific, Trenton, N.J., USA). […] KCl, histamine, and thrombin peaks given by the normalized ratios of fluorescence at 340/380 nm, at the proper time periods, were used to calculate the ratios of the responses to histamine/KCl (Hist/KCl-neuronal-like profile) and to thrombin/histamine (Throm/Hist-oligodendrocytic-like profile).
Fluorescence images were recorded using an LSM 510 Meta confocal microscope or an Axioskop 2 Plus fluorescence microscope (both from Carl Zeiss). […] Percentages of TUNEL or BrdU immunoreactive cells in SVZ cell cultures were calculated from cell counts in five independent microscopic fields in each coverslip with a x40 objective (approximately 200 cells per field). […] For SCCl experiments, the percentage of oligodendrocytic-like responding cells (with a Thromb/Hist ratio above 1.3) was calculated on the basis of one microscopic field per coverslip, containing approximately 100 cells (magnification, ×40). […]

SVZ cells [2] = test: SVZ neurosphere forming assay (primary neurospheres); type: cell-based, mouse; settings: HGF 50 ng.ml^−1, 6 days, SFM with 5 ng/ml EGF and 2.5 ng/ml FGF-2
Protocol: Neurosphere forming and self-renewal assays were performed on SVZ cells seeded at clonal density, 2500 cells per well in 24-well cell culture plates in SFM containing 5 ng/ml EGF and 2.5 ng/ml FGF-2 and supplemented or not (control) with 1 μM Hp or 50 ng.ml^−1 hepatocyte growth factor (carrier free recombinant human HGF, R&D Systems, Lille, France). After 6 days, the numbers of primary neurospheres were determined. For self-renewal assay, neurospheres were collected, dissociated as single cells and seeded in SFM containing 5 ng/ml EGF and 2.5 ng/ml FGF-2 in 24 well plates. After 6 days, the number of secondary neurospheres was counted.
Fluorescence images were recorded using an LSM 510 Meta confocal microscope or an Axioskop 2 Plus fluorescence microscope (both from Carl Zeiss). In all experiments, measurements were performed in the border of SVZ neurospheres where migrating cells form a cell monolayer. For the SVZ neurosphere forming and self-renewal assays the experiments were replicated in five independent culture preparations and each experimental condition was assayed in four different coverslips. For the remaining experiments, each condition was assayed in three different coverslips, and except where otherwise specified, the experiments were replicated in three independent culture preparations. Percentages of TUNEL or BrdU immunoreactive cells in SVZ cell cultures were calculated from cell counts in five independent microscopic fields in each coverslip with a x40 objective (approximately 200 cells per field). Software used was Axiovision, release 4.6 (Carl Zeiss). For SCCl experiments, the percentage of oligodendrocytic-like responding cells (with a Thromb/Hist ratio above 1.3) was calculated on the basis of one microscopic field per coverslip, containing approximately 100 cells (magnification, ×40).
Neural stem-like cells are characterized in vitro by both their capacity to give rise to neurospheres and to self-renew when cultured in the presence of mitogens.

SVZ cells [3] = test: SVZ self-renewal assay (secondary neurospheres); type: cell-based, mouse; settings: primary neurospheres exposed to HGF 50 ng.ml^−1 for 6 days, replated without HGF
[4] = administered to rats; cited from earlier work

CB1R, sequence (P21554 whole entry): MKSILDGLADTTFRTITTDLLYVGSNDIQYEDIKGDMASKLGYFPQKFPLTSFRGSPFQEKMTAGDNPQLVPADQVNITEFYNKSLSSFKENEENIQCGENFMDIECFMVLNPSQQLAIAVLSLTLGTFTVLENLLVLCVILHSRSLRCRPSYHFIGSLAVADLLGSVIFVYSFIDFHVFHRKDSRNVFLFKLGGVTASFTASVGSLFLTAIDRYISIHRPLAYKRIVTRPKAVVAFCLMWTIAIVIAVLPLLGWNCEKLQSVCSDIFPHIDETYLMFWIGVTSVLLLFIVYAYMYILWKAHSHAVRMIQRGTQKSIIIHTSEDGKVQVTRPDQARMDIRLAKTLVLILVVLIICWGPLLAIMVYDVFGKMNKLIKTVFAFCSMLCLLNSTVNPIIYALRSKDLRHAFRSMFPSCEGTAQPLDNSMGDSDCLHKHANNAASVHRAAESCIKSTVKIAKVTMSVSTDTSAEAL

Cc1c(C(=O)NN2CCCCC2)nn(-c2ccc(Cl)cc2Cl)c1-c1ccc(Cl)cc1 [rimonabant]
OPC differentiation into mature oligodendrocytes (OPC): do not induce but impair

RVDPVNFKFLSH (listed as Homo sapiens) [SEQ. ID. 3, N-terminally extended variant of Hp, Arg Val Asp Pro Val Asn Phe Lys Phe Leu Ser His]
activity at CB1R cannabinoid receptors (CB1R): function as agonists

COc1ccc(C(=O)c2c(C)n(CCN3CCOCC3)c3cc(I)ccc23)cc1 [AM630]
OPC differentiation into mature oligodendrocytes (OPC): do not induce but impair

Cc1c(C(=O)NN2CCCCC2)nn(-c2ccc(Cl)cc2Cl)c1-c1ccc(I)cc1 [Am 251, reference compound]
cells responding with a Throm/Hist ratio above 1.3 (oligodendrocyte-like responding cells) (SVZ cells [1]): 1.07±0.24%

HGF: carrier free recombinant human HGF, used as a positive control
number of primary neurospheres (control 100%) (SVZ cells [2]): 121.0±13.14% | number of secondary neurospheres (control 100%) (SVZ cells [3]): 120.0±11.54%

PVNFKWLSH (listed as Homo sapiens) [SEQ ID 4, variant of Hp peptide]
periepididymal and visceral fat content compared to the control group [4]: reduced

VDPVNFKFLSH (listed as Homo sapiens) [SEQ. ID. 2, N-terminally extended variant of Hp, Val Asp Pro Val Asn Phe Lys Phe Leu Ser His]
activity at CB1R cannabinoid receptors (CB1R): function as agonists
